# Results as given in article PMC9569420 (Communications Biology, 2022).
# Columns and labels:
# GSK3a = biological target: T1, GSK3a (Homo sapiens, UniProt P49840); assay: HotSpot kinase assay; assay type: biochemical; details: read-out: % Enzyme Activity (relative to DMSO controls)
# T1 construct: purchased Reaction Biology Corporation
# CAMKK2 = biological target: T2, CAMKK2 (Homo sapiens, UniProt Q96RR4); assay: HotSpot kinase assay; assay type: biochemical; details: read-out: % Enzyme Activity (relative to DMSO controls)
# T2 construct: purchased Reaction Biology Corporation
# T2 sequence (Q96RR4 whole entry): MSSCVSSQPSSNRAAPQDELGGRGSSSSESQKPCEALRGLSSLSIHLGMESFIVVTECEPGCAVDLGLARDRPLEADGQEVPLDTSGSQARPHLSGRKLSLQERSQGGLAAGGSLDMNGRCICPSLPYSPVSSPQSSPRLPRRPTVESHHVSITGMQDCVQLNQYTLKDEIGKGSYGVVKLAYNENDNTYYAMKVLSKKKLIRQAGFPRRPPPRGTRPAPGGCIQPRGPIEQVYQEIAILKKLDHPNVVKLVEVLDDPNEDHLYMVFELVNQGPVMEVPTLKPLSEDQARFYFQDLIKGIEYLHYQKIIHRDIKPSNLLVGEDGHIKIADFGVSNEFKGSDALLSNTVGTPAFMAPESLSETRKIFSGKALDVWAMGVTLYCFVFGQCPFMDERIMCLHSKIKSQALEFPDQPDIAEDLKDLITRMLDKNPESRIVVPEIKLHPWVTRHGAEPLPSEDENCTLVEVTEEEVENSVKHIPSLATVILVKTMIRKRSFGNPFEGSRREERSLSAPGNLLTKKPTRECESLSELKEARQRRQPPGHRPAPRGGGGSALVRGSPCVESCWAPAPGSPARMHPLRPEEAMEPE
# CDK1/cyclin A = biological target: T3, CDK1/cyclin A (Homo sapiens, UniProt P06493); assay: HotSpot kinase assay; assay type: biochemical; details: read-out: % Enzyme Activity (relative to DMSO controls)
# T3 construct: purchased Reaction Biology Corporation
# SARS-CoV-2 (WA1/2020) = assay: SARS-CoV-2 infection of Huh-7.5 cells (nucleocapsid staining); details: 24 and 72 h
# ROCK2 = biological target: T4, ROCK2 (Homo sapiens, UniProt O75116); assay: HotSpot kinase assay; assay type: biochemical; details: read-out: % Enzyme Activity (relative to DMSO controls)
# T4 construct: purchased Reaction Biology Corporation
# CHK1 = biological target: T5, CHK1 (Homo sapiens, UniProt O14757); assay: HotSpot kinase assay; assay type: biochemical; details: read-out: % Enzyme Activity (relative to DMSO controls)
# T5 construct: purchased Reaction Biology Corporation
# CLK2 = biological target: T6, CLK2 (Homo sapiens, UniProt P49760); assay: HotSpot kinase assay; assay type: biochemical; details: read-out: % Enzyme Activity (relative to DMSO controls)
# T6 construct: purchased Reaction Biology Corporation
# MEKK3 = biological target: T7, MEKK3 (Homo sapiens, UniProt Q99759); assay: HotSpot kinase assay; assay type: biochemical; details: read-out: % Enzyme Activity (relative to DMSO controls)
# T7 construct: purchased Reaction Biology Corporation
# T7 sequence (Q99759 whole entry): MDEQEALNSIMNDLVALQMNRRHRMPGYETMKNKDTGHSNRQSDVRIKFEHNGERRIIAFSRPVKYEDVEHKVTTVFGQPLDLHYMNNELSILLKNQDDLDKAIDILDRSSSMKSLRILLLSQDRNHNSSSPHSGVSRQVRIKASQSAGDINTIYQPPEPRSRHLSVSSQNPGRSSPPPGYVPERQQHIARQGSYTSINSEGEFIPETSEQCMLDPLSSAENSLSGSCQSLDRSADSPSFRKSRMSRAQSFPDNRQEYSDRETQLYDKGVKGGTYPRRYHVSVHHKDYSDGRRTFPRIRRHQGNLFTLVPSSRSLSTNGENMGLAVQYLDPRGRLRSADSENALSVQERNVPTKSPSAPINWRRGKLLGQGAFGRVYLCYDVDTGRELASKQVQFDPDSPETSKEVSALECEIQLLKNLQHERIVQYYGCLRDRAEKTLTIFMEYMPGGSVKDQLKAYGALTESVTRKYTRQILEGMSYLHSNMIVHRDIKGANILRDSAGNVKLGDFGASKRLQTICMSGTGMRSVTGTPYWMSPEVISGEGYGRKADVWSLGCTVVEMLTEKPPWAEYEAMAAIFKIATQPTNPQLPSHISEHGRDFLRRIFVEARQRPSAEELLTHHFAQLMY
# NEK9 = biological target: T8, NEK9 (Homo sapiens, UniProt Q8TD19); assay: HotSpot kinase assay; assay type: biochemical; details: read-out: % Enzyme Activity (relative to DMSO controls)
# T8 construct: purchased Reaction Biology Corporation
# HSV-2(G) = assay: HSV plaque assay, HaCat cells; assay type: cell-based; details: Human alphaherpesvirus 2, HaCaT, read-out: inhibition of HSV-2 infection
# Description: After 48 h incubation, plaques were counted by immunoassay using an anti–human IgG antibody peroxidase conjugate (PA1-86064, Thermo Fisher)[33]. […] Western blots were prepared and probed for gD as a marker of bound virus and β-actin as a control.
# ABL1 = biological target: T9, ABL1 (Homo sapiens, UniProt P00519); assay: biochemical
# T9 construct: purchased Reaction Biology Corporation
# T9 sequence (P00519 whole entry): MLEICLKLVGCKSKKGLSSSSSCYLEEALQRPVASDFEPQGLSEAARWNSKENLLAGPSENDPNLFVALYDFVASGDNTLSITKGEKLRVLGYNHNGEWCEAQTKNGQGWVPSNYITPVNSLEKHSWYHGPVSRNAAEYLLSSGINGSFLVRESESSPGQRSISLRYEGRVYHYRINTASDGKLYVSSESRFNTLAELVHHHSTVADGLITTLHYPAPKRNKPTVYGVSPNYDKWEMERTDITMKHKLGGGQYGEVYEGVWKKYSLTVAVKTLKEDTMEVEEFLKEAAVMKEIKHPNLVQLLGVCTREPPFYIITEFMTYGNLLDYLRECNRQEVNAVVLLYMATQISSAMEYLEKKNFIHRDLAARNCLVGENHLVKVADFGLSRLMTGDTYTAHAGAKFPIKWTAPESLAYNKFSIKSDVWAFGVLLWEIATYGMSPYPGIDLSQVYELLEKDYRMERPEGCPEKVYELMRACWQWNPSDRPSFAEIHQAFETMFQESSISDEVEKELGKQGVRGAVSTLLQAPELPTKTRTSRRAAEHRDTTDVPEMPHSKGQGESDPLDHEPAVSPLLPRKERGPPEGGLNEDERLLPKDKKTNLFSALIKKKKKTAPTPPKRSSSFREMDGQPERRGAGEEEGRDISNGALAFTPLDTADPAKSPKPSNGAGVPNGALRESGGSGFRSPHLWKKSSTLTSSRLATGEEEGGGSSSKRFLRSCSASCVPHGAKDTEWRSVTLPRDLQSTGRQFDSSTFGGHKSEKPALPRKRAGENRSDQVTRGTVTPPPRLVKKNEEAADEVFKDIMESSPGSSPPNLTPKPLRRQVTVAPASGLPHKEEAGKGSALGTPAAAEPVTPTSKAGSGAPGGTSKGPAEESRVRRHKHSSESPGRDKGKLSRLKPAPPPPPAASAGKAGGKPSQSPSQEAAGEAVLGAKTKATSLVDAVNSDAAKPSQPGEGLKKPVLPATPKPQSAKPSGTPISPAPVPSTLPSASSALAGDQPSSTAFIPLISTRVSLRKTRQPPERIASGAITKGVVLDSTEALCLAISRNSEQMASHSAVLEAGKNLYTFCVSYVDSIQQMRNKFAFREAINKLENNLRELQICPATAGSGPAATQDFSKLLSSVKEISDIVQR
# JNK3 = biological target: T10, JNK3 (Homo sapiens, UniProt P53779); assay: HotSpot kinase assay; assay type: biochemical; details: read-out: % Enzyme Activity (relative to DMSO controls)
# T10 construct: purchased Reaction Biology Corporation
# PAK4 = biological target: T11, PAK4 (Homo sapiens, UniProt O96013); assay: HotSpot kinase assay; assay type: biochemical; details: read-out: % Enzyme Activity (relative to DMSO controls)
# T11 construct: purchased Reaction Biology Corporation
# TRKC = biological target: T12, TRKC (Homo sapiens, UniProt Q16288); assay: HotSpot kinase assay; assay type: biochemical; details: read-out: % Enzyme Activity (relative to DMSO controls)
# T12 construct: purchased Reaction Biology Corporation
# CDK9/cyclin T1 = biological target: T13, CDK9/cyclin T1 (Homo sapiens, UniProt P50750); assay: HotSpot kinase assay; assay type: biochemical; details: read-out: % Enzyme Activity (relative to DMSO controls)
# T13 construct: purchased Reaction Biology Corporation
# CDK7/cyclin H = biological target: T14, CDK7/cyclin H (Homo sapiens, UniProt P50613); assay: HotSpot kinase assay; assay type: biochemical; details: read-out: % Enzyme Activity (relative to DMSO controls)
# T14 construct: purchased Reaction Biology Corporation
# PDGFRb = biological target: T15, PDGFRb (Homo sapiens, UniProt P09619); assay: HotSpot kinase assay; assay type: biochemical; details: read-out: % Enzyme Activity (relative to DMSO controls)
# T15 construct: purchased Reaction Biology Corporation
# MYO3A = biological target: T16, MYO3A (Homo sapiens, UniProt Q8NEV4); assay: HotSpot kinase assay; assay type: biochemical; details: read-out: % Enzyme Activity (relative to DMSO controls)
# T16 construct: purchased Reaction Biology Corporation
# CDK17/cyclin Y (PCTK2) = biological target: T17, CDK17/cyclin Y (PCTK2) (Homo sapiens, UniProt Q00537); assay: HotSpot kinase assay; assay type: biochemical; details: read-out: % Enzyme Activity (relative to DMSO controls)
# T17 construct: purchased Reaction Biology Corporation
# Haspin = biological target: T18, Haspin (Homo sapiens, UniProt Q8TF76); assay: HotSpot kinase assay; assay type: biochemical; details: read-out: % Enzyme Activity (relative to DMSO controls)
# T18 construct: purchased Reaction Biology Corporation
# PKCnu/PRKD3 = biological target: T19, PKCnu/PRKD3 (Homo sapiens, UniProt O94806); assay: HotSpot kinase assay; assay type: biochemical; details: read-out: % Enzyme Activity (relative to DMSO controls)
# T19 construct: purchased Reaction Biology Corporation
# T19 sequence (O94806 whole entry): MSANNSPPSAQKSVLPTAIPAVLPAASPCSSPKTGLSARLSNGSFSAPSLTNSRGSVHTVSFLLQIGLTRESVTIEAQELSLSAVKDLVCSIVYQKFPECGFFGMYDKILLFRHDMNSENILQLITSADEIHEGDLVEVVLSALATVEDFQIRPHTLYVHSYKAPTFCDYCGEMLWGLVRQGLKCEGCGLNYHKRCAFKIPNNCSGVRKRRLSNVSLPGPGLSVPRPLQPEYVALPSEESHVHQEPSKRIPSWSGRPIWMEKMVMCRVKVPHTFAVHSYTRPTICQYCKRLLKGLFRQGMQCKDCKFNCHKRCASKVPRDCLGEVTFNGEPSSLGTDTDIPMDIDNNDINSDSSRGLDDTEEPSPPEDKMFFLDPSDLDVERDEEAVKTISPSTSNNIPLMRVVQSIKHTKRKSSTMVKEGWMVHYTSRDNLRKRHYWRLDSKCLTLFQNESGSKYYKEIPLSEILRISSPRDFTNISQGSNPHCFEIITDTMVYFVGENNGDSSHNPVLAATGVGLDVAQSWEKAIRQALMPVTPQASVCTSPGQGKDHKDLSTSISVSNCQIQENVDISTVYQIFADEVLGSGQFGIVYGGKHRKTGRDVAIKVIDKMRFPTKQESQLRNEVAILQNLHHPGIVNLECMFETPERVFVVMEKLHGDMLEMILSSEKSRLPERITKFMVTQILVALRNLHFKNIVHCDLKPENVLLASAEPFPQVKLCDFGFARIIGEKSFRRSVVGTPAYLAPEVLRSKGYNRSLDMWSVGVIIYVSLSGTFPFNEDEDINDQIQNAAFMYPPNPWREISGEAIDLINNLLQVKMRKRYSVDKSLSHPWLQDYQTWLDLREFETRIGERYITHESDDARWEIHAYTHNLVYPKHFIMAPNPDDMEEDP
# MKK7 = biological target: T20, MKK7 (Homo sapiens, UniProt O14733); assay: HotSpot kinase assay; assay type: biochemical; details: read-out: % Enzyme Activity (relative to DMSO controls)
# T20 construct: purchased Reaction Biology Corporation
# STK33 = biological target: T21, STK33 (Homo sapiens, UniProt Q9BYT3); assay: HotSpot kinase assay; assay type: biochemical; details: read-out: % Enzyme Activity (relative to DMSO controls)
# T21 construct: purchased Reaction Biology Corporation
# T21 sequence (Q9BYT3 whole entry): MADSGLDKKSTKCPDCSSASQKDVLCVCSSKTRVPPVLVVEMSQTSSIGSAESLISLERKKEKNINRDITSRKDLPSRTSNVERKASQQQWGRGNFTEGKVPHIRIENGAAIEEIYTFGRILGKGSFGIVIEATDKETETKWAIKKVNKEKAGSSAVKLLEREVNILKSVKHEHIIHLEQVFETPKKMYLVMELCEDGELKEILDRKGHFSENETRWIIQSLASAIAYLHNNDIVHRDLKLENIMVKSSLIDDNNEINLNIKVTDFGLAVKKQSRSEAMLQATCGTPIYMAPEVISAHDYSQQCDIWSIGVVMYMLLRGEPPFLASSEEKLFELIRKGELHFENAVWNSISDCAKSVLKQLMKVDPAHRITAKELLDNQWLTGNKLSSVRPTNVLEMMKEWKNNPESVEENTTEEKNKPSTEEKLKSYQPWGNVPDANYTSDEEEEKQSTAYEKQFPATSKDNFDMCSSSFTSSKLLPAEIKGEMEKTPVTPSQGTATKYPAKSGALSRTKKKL
# DYRK2 = biological target: T22, DYRK2 (Homo sapiens, UniProt Q92630); assay: HotSpot kinase assay; assay type: biochemical; details: read-out: % Enzyme Activity (relative to DMSO controls)
# T22 construct: purchased Reaction Biology Corporation
# CDK8/cyclin C = biological target: T23, CDK8/cyclin C (Homo sapiens, UniProt P49336); assay: HotSpot kinase assay; assay type: biochemical; details: read-out: % Enzyme Activity (relative to DMSO controls)
# T23 construct: purchased Reaction Biology Corporation
# GRK7 = biological target: T24, GRK7 (Homo sapiens, UniProt Q8WTQ7); assay: HotSpot kinase assay; assay type: biochemical; details: read-out: % Enzyme Activity (relative to DMSO controls)
# T24 construct: purchased Reaction Biology Corporation
# FAK/PTK2 = biological target: T25, FAK/PTK2 (Homo sapiens, UniProt Q05397); assay: HotSpot kinase assay; assay type: biochemical; details: read-out: % Enzyme Activity (relative to DMSO controls)
# T25 construct: purchased Reaction Biology Corporation
# T25 sequence (Q05397 whole entry): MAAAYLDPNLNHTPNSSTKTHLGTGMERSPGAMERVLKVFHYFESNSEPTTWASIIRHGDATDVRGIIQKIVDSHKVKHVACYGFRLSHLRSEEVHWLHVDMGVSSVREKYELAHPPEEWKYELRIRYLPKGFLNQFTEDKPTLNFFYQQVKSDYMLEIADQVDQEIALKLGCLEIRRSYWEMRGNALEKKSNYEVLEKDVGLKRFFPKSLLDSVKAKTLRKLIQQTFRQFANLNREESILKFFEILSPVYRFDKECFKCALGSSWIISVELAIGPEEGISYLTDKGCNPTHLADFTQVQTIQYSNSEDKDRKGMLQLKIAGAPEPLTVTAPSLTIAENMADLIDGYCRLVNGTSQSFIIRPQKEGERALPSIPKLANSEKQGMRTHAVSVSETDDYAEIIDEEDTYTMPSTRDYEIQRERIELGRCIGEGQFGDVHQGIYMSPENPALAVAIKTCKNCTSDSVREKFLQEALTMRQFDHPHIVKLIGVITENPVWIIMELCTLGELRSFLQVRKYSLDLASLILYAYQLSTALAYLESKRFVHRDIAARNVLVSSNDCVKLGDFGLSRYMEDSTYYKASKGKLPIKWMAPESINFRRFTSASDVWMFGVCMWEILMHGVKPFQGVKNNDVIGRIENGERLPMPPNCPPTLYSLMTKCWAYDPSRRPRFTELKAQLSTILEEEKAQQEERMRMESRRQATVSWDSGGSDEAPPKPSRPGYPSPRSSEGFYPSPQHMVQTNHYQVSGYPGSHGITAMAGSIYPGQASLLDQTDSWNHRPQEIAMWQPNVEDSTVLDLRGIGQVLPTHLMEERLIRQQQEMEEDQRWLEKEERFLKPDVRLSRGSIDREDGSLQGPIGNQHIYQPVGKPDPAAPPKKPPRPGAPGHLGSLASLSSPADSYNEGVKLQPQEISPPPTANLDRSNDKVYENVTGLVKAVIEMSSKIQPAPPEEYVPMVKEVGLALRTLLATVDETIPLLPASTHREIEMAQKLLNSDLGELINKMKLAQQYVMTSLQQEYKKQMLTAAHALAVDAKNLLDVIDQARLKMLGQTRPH
# PKCb2 = biological target: T26, PKCb2 (Homo sapiens, UniProt P05771); assay: HotSpot kinase assay; assay type: biochemical; details: read-out: % Enzyme Activity (relative to DMSO controls)
# T26 construct: purchased Reaction Biology Corporation
# ALK2/ACVR1 = biological target: T27, ALK2/ACVR1 (Homo sapiens, UniProt Q04771); assay: HotSpot kinase assay; assay type: biochemical; details: read-out: % Enzyme Activity (relative to DMSO controls)
# T27 construct: purchased Reaction Biology Corporation
# PKG1b = biological target: T28, PKG1b (Homo sapiens, UniProt Q13976); assay: HotSpot kinase assay; assay type: biochemical; details: read-out: % Enzyme Activity (relative to DMSO controls)
# T28 construct: purchased Reaction Biology Corporation
# EEF2K = biological target: T29, EEF2K (Homo sapiens, UniProt O00418); assay: HotSpot kinase assay; assay type: biochemical; details: read-out: % Enzyme Activity (relative to DMSO controls)
# T29 construct: purchased Reaction Biology Corporation
# IRAK1 = biological target: T30, IRAK1 (Homo sapiens, UniProt P51617); assay: HotSpot kinase assay; assay type: biochemical; details: read-out: % Enzyme Activity (relative to DMSO controls)
# T30 construct: purchased Reaction Biology Corporation
# STK25/YSK1 = biological target: T31, STK25/YSK1 (Homo sapiens, UniProt O00506); assay: HotSpot kinase assay; assay type: biochemical; details: read-out: % Enzyme Activity (relative to DMSO controls)
# T31 construct: purchased Reaction Biology Corporation
# p70S6K/RPS6KB1 = biological target: T32, p70S6K/RPS6KB1 (Homo sapiens, UniProt P23443); assay: HotSpot kinase assay; assay type: biochemical; details: read-out: % Enzyme Activity (relative to DMSO controls)
# T32 construct: purchased Reaction Biology Corporation
# CAMK4 = biological target: T33, CAMK4 (Homo sapiens, UniProt Q16566); assay: HotSpot kinase assay; assay type: biochemical; details: read-out: % Enzyme Activity (relative to DMSO controls)
# T33 construct: purchased Reaction Biology Corporation
# CDK9/cyclin T2 = biological target: T34, CDK9/cyclin T2 (Homo sapiens, UniProt P50750); assay: HotSpot kinase assay; assay type: biochemical; details: read-out: % Enzyme Activity (relative to DMSO controls)
# T34 construct: purchased Reaction Biology Corporation
# MAST3 = biological target: T35, MAST3 (Homo sapiens, UniProt O60307); assay: HotSpot kinase assay; assay type: biochemical; details: read-out: % Enzyme Activity (relative to DMSO controls)
# T35 construct: purchased Reaction Biology Corporation
# PKCIOTA = biological target: T36, PKCIOTA (Homo sapiens, UniProt P41743); assay: HotSpot kinase assay; assay type: biochemical; details: read-out: % Enzyme Activity (relative to DMSO controls)
# T36 construct: purchased Reaction Biology Corporation
# c-MER = biological target: T37, c-MER (Homo sapiens, UniProt Q12866); assay: HotSpot kinase assay; assay type: biochemical; details: read-out: % Enzyme Activity (relative to DMSO controls)
# T37 construct: purchased Reaction Biology Corporation
# TLK1 = biological target: T38, TLK1 (Homo sapiens, UniProt Q9UKI8); assay: HotSpot kinase assay; assay type: biochemical; details: read-out: % Enzyme Activity (relative to DMSO controls)
# T38 construct: purchased Reaction Biology Corporation
# DMPK2 = biological target: T39, DMPK2 (Homo sapiens, UniProt Q6DT37); assay: HotSpot kinase assay; assay type: biochemical; details: read-out: % Enzyme Activity (relative to DMSO controls)
# T39 construct: purchased Reaction Biology Corporation
compound,measurement,setting,value
CO[C@@H]1[C@H](N(C)C(=O)CCC(=O)NCc2cn(CCCS(=O)(=O)O)nn2)C[C@H]2O[C@]1(C)n1c3ccccc3c3c4c(c5c6ccccc6n2c5c31)C(=O)NC4 [CIMSS],remaining activity at 10 µM,GSK3a,2.72%
same,remaining activity at 10 µM,CAMKK2,1.86%
same,remaining activity at 10 µM,CDK1/cyclin A,21.3%
same,authentic SARS-CoV-2 (WA1/2020) infection,SARS-CoV-2 (WA1/2020),inhibitory activity
same,remaining activity at 10 µM,ROCK2,12.7%
same,remaining activity at 10 µM,CHK1,4.66%
same,remaining activity at 10 µM,CLK2,4.13%
same,remaining activity at 10 µM,MEKK3,6.32%
same,remaining activity at 10 µM,NEK9,2.81%
same,inhibition at 10 µM,HSV-2(G),> 75%
same,IC50,"ABL1; Supplementary Table 1, read-out: IC50 (Molar concentration)",143 nM
same,remaining activity at 10 µM,"ABL1; read-out: % Enzyme Activity (relative to DMSO controls), 10µM",5.18%
same,remaining activity at 10 µM,JNK3,23.6%
same,remaining activity at 10 µM,PAK4,7.78%
same,remaining activity at 10 µM,TRKC,0.34%
same,remaining activity at 10 µM,CDK9/cyclin T1,13.1%
same,remaining activity at 10 µM,CDK7/cyclin H,65.6%
same,remaining activity at 10 µM,PDGFRb,1.9%
same,remaining activity at 10 µM,MYO3A,6.46%
same,remaining activity at 10 µM,CDK17/cyclin Y (PCTK2),54.2%
same,remaining activity at 10 µM,Haspin,49.5%
same,remaining activity at 10 µM,PKCnu/PRKD3,11.4%
same,remaining activity at 10 µM,MKK7,96.2%
same,remaining activity at 10 µM,STK33,9.17%
same,remaining activity at 10 µM,DYRK2,9.12%
same,remaining activity at 10 µM,CDK8/cyclin C,10.1%
same,remaining activity at 10 µM,GRK7,7.19%
same,remaining activity at 10 µM,FAK/PTK2,15.5%
same,remaining activity at 10 µM,PKCb2,1.71%
same,remaining activity at 10 µM,ALK2/ACVR1,72.7%
same,remaining activity at 10 µM,PKG1b,13.9%
same,remaining activity at 10 µM,EEF2K,99.5%
same,remaining activity at 10 µM,IRAK1,3.57%
same,remaining activity at 10 µM,STK25/YSK1,4.17%
same,remaining activity at 10 µM,p70S6K/RPS6KB1,5.46%
same,remaining activity at 10 µM,CAMK4,66.6%
same,remaining activity at 10 µM,CDK9/cyclin T2,8.55%
same,remaining activity at 10 µM,MAST3,106%
same,remaining activity at 10 µM,PKCIOTA,31.5%
same,remaining activity at 10 µM,c-MER,2.17%
same,remaining activity at 10 µM,TLK1,26.1%
same,remaining activity at 10 µM,DMPK2,10.9%
